Data reported in publication PMC12669040, “Tumour-specific STING agonist synthesis via a two-component prodrug system” (Nature Chemistry, 2025).
Where “and” joins values, the source holds several entries; their conditions need not be identical. Equal values may be shown once.

Assays:
[1] = Colorimetric alkylation rate constant assay with TNB^2− as non-specific thiol; type: physicochemical; parameters: second-order: unit not given here; settings: for remaining [B]: in µM
[2] = Colorimetric alkylation rate constant assay with thiol N1; type: physicochemical; settings: for remaining [A]: N1 from calibration curve (N1 in uM); for remaining [A] / remaining [B]: in µM
[3] = Time 2891 sec, [B]0 = 250, Replicates 1-3
[4] = Time 3071 sec, [B]0 = 250, Replicates 1-3
[5] = Time 3252 sec, [B]0 = 250, Replicates 1-3
[6] = Time 3433 sec, [B]0 = 250, Replicates 1-3
[7] = Time 3613 sec, [B]0 = 250, Replicates 1-3

remaining [B] ([1]; Replicate 1, 723 sec, [B]0 = 250): 246.309 | remaining [B] ([1]; Replicate 1, 903 sec, [B]0 = 250): 246.195 | remaining [B] ([1]; Replicate 1, 1084 sec, [B]0 = 250): 246.107 | remaining [B] ([1]; Replicate 1, 1265 sec, [B]0 = 250): 246.422 | remaining [B] ([1]; Replicate 1, 1445 sec, [B]0 = 250): 246.548 | remaining [B] ([1]; Replicate 1, 1626 sec, [B]0 = 250): 246.346 | remaining [B] ([1]; Replicate 1, 1806 sec, [B]0 = 250): 245.931 | remaining [B] ([1]; Replicate 1, 1988 sec, [B]0 = 250): 245.767 | remaining [B] ([1]; Replicate 1, 2168 sec, [B]0 = 250): 245.616 | remaining [B] ([1]; Replicate 1, 2349 sec, [B]0 = 250): 245.553 | remaining [B] ([1]; Replicate 1, 2530 sec, [B]0 = 250): 245.464 | remaining [B] ([1]; Replicate 1, 2710 sec, [B]0 = 250): 245.427 | remaining [B] ([1]; Replicate 2, 542 sec, [B]0=250): 245.747 | remaining [B] ([1]; Replicate 2, 723 sec, [B]0=250): 245.533 | remaining [B] ([1]; Replicate 2, 903 sec, [B]0=250): 245.445 | remaining [B] ([1]; Replicate 2, 1084 sec, [B]0=250): 245.382 | remaining [B] ([1]; Replicate 2, 1265 sec, [B]0=250): 245.218 | remaining [B] ([1]; Replicate 2, 1445 sec, [B]0=250): 245.168 | remaining [B] ([1]; Replicate 2, 1626 sec, [B]0=250): 245.067 | remaining [B] ([1]; Replicate 2, 1806 sec, [B]0=250): 244.991 | remaining [B] ([1]; Replicate 2, 1988 sec, [B]0=250): 244.928 | remaining [B] ([1]; Replicate 2, 2168 sec, [B]0=250): 244.827 | remaining [B] ([1]; Replicate 2, 2349 sec, [B]0=250): 244.739 | remaining [B] ([1]; Replicate 2, 2530 sec, [B]0=250): 244.676 | remaining [B] ([1]; Replicate 2, 2710 sec, [B]0=250): 244.563 | remaining [B] ([1]; Replicate 3, 723 sec, [B]0=250): 245.666 | remaining [B] ([1]; Replicate 3, 903 sec, [B]0=250): 245.565 | remaining [B] ([1]; Replicate 3, 1084 sec, [B]0=250): 245.427 | remaining [B] ([1]; Replicate 3, 1265 sec, [B]0=250): 245.389 | remaining [B] ([1]; Replicate 3, 1445 sec, [B]0=250): 245.313 | remaining [B] ([1]; Replicate 3, 1626 sec, [B]0=250): 245.149 | remaining [B] ([1]; Replicate 3, 1806 sec, [B]0=250): 245.137 | remaining [B] ([1]; Replicate 3, 1988 sec, [B]0=250): 245.036 | remaining [B] ([1]; Replicate 3, 2168 sec, [B]0=250): 244.986 | remaining [B] ([1]; Replicate 3, 2349 sec, [B]0=250): 244.872 | remaining [B] ([1]; Replicate 3, 2530 sec, [B]0=250): 244.809 | remaining [B] ([1]; Replicate 3, 2710 sec, [B]0=250): 244.62 | remaining [B] [1, 3]: 244.62 and 245.338 and 244.475 | remaining [B] [1, 4]: 244.544 and 245.225 and 244.386 | remaining [B] [1, 5]: 244.481 and 245.2 and 244.323 | remaining [B] [1, 6]: 244.343 and 245.049 and 244.235 | remaining [B] [1, 7]: 244.28 | remaining [A] ([2]; Replicate 1, time 576 sec): 85.1676 | remaining [B] ([2]; Replicate 1, time 576 sec, [B]0 = 250): 231.048 | remaining [A] ([2]; Replicate 1, time 606 sec): 84.6546 | remaining [B] ([2]; Replicate 1, time 606 sec, [B]0 = 250): 230.535 | remaining [A] ([2]; Replicate 2, time 576 sec): 85.8231 | remaining [B] ([2]; Replicate 2, time 576 sec, [B]0=250): 232.681 | remaining [A] ([2]; Replicate 2, time 606 sec): 85.3129 | remaining [B] ([2]; Replicate 2, time 606 sec, [B]0=250): 232.171 | remaining [A] ([2]; Replicate 3, time 576 sec): 89.9918 | remaining [B] ([2]; Replicate 3, time 576 sec, [B]0=250): 235.444 | remaining [A] ([2]; Replicate 3, time 606 sec): 89.4236 | remaining [B] ([2]; Replicate 3, time 606 sec, [B]0=250): 234.876 | remaining [B] ([2]; time 0 sec, [B]0 = 250, replicates 1-3): 249.513 and 244.642 and 245.947 | remaining [B] ([2]; time 30 sec, [B]0 = 250, replicates 1-3): 248.485 and 243.217 and 245.21 | remaining [B] ([2]; time 60 sec, [B]0 = 250, replicates 1-3): 247.619 and 242.647 and 243.934 | remaining [B] ([2]; time 91 sec, [B]0 = 250, replicates 1-3): 246.645 and 241.963 and 243.197 | remaining [B] ([2]; time 121 sec, [B]0 = 250, replicates 1-3): 245.942 and 241.222 and 242.404 | remaining [B] ([2]; time 151 sec, [B]0 = 250, replicates 1-3): 245.265 and 240.31 and 241.667 | remaining [B] ([2]; time 182 sec, [B]0 = 250, replicates 1-3): 244.291 and 239.712 and 241.043 | remaining [B] ([2]; time 212 sec, [B]0 = 250, replicates 1-3): 243.723 and 239.142 and 240.505 | remaining [B] ([2]; time 242 sec, [B]0 = 250, replicates 1-3): 242.993 and 238.344 and 239.824 | remaining [B] ([2]; time 273 sec, [B]0 = 250, replicates 1-3): 242.1 and 237.717 and 239.002 | remaining [B] ([2]; time 303 sec, [B]0 = 250, replicates 1-3): 241.397 and 237.004 and 238.492 | remaining [B] ([2]; time 333 sec, [B]0 = 250, replicates 1-3): 240.774 and 236.377 and 237.897 | remaining [B] ([2]; time 364 sec, [B]0 = 250, replicates 1-3): 239.963 and 235.665 and 237.16 | remaining [B] ([2]; time 394 sec, [B]0 = 250, replicates 1-3): 239.367 and 234.981 and 236.423 | remaining [B] ([2]; time 424 sec, [B]0 = 250, replicates 1-3): 238.745 and 234.154 and 235.799 | remaining [B] ([2]; time 454 sec, [B]0 = 250, replicates 1-3): 238.204 and 233.641 and 235.374 | remaining [B] ([2]; time 485 sec, [B]0 = 250, replicates 1-3): 237.419 and 232.929 and 234.552 | remaining [B] ([2]; time 515 sec, [B]0 = 250, replicates 1-3): 236.662 and 232.416 and 234.155 | remaining [B] ([2]; time 545 sec, [B]0 = 250, replicates 1-3): 236.148 and 231.703 and 233.702
SMILES: O=C(CCl)Nc1ccccc1C(=O)O [Compound C5]
second-order [1, 3]: 0.0002299 and 0.0002236 and 0.0001928 | second-order [1, 4]: 0.0002338 and 0.0002269 and 0.0001976 | second-order [1, 5]: 0.0002365 and 0.0002296 and 0.0001987 | second-order [1, 6]: 0.0002403 and 0.0002356 and 0.0002052 | second-order [1, 7]: 0.0002452 and 0.0002384 and 0.0002063 | second-order ([1]; Time 3794 sec, [B]0 = 250, Replicates 1-3): 0.0002474 and 0.0002417 and 0.0002117 | second-order ([1]; Time 3974 sec, [B]0 = 250, Replicates 1-3): 0.0002513 and 0.0002455 and 0.0002139 | second-order ([1]; Time 4155 sec, [B]0 = 250, Replicates 1-3): 0.0002546 and 0.0002504 and 0.0002193 | second-order ([1]; Time 4336 sec, [B]0 = 250, Replicates 1-3): 0.000259 and 0.0002537 and 0.000222 | second-order ([1]; Time 4516 sec, [B]0 = 250, Replicates 1-3): 0.0002623 and 0.0002543 and 0.0002291 | second-order ([1]; Time 4697 sec, [B]0 = 250, Replicates 1-3): 0.0002656 and 0.0002598 and 0.0002275 | second-order ([1]; Time 4878 sec, [B]0 = 250, Replicates 1-3): 0.0002689 and 0.0002614 and 0.0002307 | second-order ([1]; Time 5058 sec, [B]0 = 250, Replicates 1-3): 0.0002728 and 0.000267 and 0.0002367 | second-order ([1]; Time 5239 sec, [B]0 = 250, Replicates 1-3): 0.0002767 and 0.0002692 and 0.0002406 | second-order ([1]; Time 5419 sec, [B]0 = 250, Replicates 1-3): 0.0002789 and 0.0002725 and 0.0002433 | second-order ([1]; Time 5600 sec, [B]0 = 250, Replicates 1-3): 0.0002833 and 0.0002764 and 0.0002471 | second-order ([1]; Time 5781 sec, [B]0 = 250, Replicates 1-3): 0.0002878 and 0.0002803 and 0.0002499 | second-order ([1]; Time 5961 sec, [B]0 = 250, Replicates 1-3): 0.0002906 and 0.000283 and 0.0002554 | second-order ([2]; Replicate 1, time 576 sec, second-order plot value): 0.0008369 | second-order ([2]; Replicate 1, time 606 sec, second-order plot value): 0.0008631 | second-order ([2]; Replicate 2, time 576 sec, second-order plot value): 0.0007628 | second-order ([2]; Replicate 2, time 606 sec, second-order plot value): 0.0007885 | second-order ([2]; Replicate 3, time 576 sec, second-order plot value): 0.0006183 | second-order ([2]; Replicate 3, time 606 sec, second-order plot value): 0.0006452 | second-order ([2]; time 0 sec, replicates 1-3): 0.0001617 and 1.87e-5 and 0.0002136 | second-order ([2]; time 30 sec, replicates 1-3): 0.0001921 and 5.857e-5 and 0.0002732 | second-order ([2]; time 60 sec, replicates 1-3): 0.0002455 and 9.259e-5 and 0.0002974 | second-order ([2]; time 91 sec, replicates 1-3): 0.0002767 and 0.0001313 and 0.0003267 | second-order ([2]; time 121 sec, replicates 1-3): 0.0003108 and 0.0001597 and 0.0003587 | second-order ([2]; time 151 sec, replicates 1-3): 0.0003428 and 0.0001872 and 0.0003986 | second-order ([2]; time 182 sec, replicates 1-3): 0.0003702 and 0.0002272 and 0.0004251 | second-order ([2]; time 212 sec, replicates 1-3): 0.000394 and 0.0002509 and 0.0004506 | second-order ([2]; time 242 sec, replicates 1-3): 0.0004243 and 0.0002815 and 0.0004866 | second-order ([2]; time 273 sec, replicates 1-3): 0.0004614 and 0.0003194 and 0.0005152 | second-order ([2]; time 303 sec, replicates 1-3): 0.0004847 and 0.0003496 and 0.000548 | second-order ([2]; time 333 sec, replicates 1-3): 0.000512 and 0.0003766 and 0.0005771 | second-order ([2]; time 364 sec, replicates 1-3): 0.0005463 and 0.0004122 and 0.0006106 | second-order ([2]; time 394 sec, replicates 1-3): 0.0005809 and 0.0004386 and 0.0006431 | second-order ([2]; time 424 sec, replicates 1-3): 0.0006105 and 0.0004664 and 0.0006829 | second-order ([2]; time 454 sec, replicates 1-3): 0.0006308 and 0.0004908 and 0.0007078 | second-order ([2]; time 485 sec, replicates 1-3): 0.0006705 and 0.0005265 and 0.0007427 | second-order ([2]; time 515 sec, replicates 1-3): 0.0006899 and 0.0005614 and 0.0007681 | second-order ([2]; time 545 sec, replicates 1-3): 0.0007121 and 0.0005853 and 0.0008038
